How the values were obtained:
Type in all cases: in vivo, human
subjects with GBS [1] = assay: Motor strength on 0-5 ordinal scale, Phase I double-blind placebo controlled crossover study
Description: This was a Phase I double-blind, placebo controlled, crossover, dose escalating study in subjects with GBS similar to those proposed for MS and SCI. An initial trial of ten patients will be randomized to […] of the two treatment sequences (A or B) as shown below. The study population consists of subjects with GBS injury whose neurological status has been stable for at least eighteen months. Ten subjects will be enrolled. Motor strength was rated on the traditional 0-5 ordinal scale: 0—absent motor strength 1—trace motor strength 2—can move the specified joint but only with gravity eliminated 3—can move the joint against gravity but not against any opposing force 4—can move the joint against opposing force but the strength is not normal for the person or symmetrical 5—normal motor strength This scale was employed to measure the following motor strength for each of these joint motions on both the right and the left sides: hip flexion, hip adduction, hip abduction, knee flexion, knee extension, ankle dorsi-flexion, ankle plantar flexion, shoulder abduction, elbow extension, elbow flexion, wrist flexion, and wrist extension. [table]

subjects with GBS [2] = assay: Hand grip strength on hand dynamometer, same study; conditions: hand-held dynamometer; p=0.0243 paired Student's t-test; repeated measures ANOVA p=0.0715; FIG. 3
Description: This was a Phase I double-blind, placebo controlled, crossover, dose escalating study in subjects with GBS similar to those proposed for MS and SCI. An initial trial of ten patients will be randomized to […] of the two treatment sequences (A or B) as shown below. The study population consists of subjects with GBS injury whose neurological status has been stable for at least eighteen months. Ten subjects will be enrolled. Hand grip strength was measured on a hand dynamometer that had been calibrated. Each patient was given three trials separated by thirty second rest periods and the strongest of the three measurements was recorded for each hand. [table]

subjects with GBS [3] = assay: Serum laboratories drawn at start and every week of the study
Description: This was a Phase I double-blind, placebo controlled, crossover, dose escalating study in subjects with GBS similar to those proposed for MS and SCI. An initial trial of ten patients will be randomized to […] of the two treatment sequences (A or B) as shown below.
The study population consists of subjects with GBS injury whose neurological status has been stable for at least eighteen months. Ten subjects will be enrolled.
In addition, serum laboratories were drawn at the beginning of the study and every week of the study. The serum laboratories included glucose, blood urea nitrogen, creatinine, uric acid, calcium, total protein, albumin, phosphate, total bilirubin, cholesterol, LDH, SGOT/AST, alkaline phosphatase, hematocrit, hemoglobin, red blood cell count, platelet count, and white blood cell count with differential.

[4] = serum laboratory, before change
[5] = serum laboratory, statistically significant, not clinically significant

Nc1ccncc1 [4-aminopyridine]
Lower extremity strength, average motor score on the active medication (subjects with GBS [1]; 0-5 scale, 10-20 mg bid escalating, p<0.0001, Friedeman's, FIG. 1): 3.7
Upper extremity strength, average motor score after increase (subjects with GBS [1]; 0-5 scale, 10-20 mg bid escalating, p=0.0065, Friedeman's, FIG. 2): 3.7
Upper extremity strength, average motor score, starting value (subjects with GBS [1]; 0-5 scale, value before increase, FIG. 2): 3.2
Lower extremity strength, average motor score, starting value (subjects with GBS [1]; 0-5 scale, value before increase, seven GBS patients, FIG. 1): 3.2
Duration of neural biological effects after stopping the drug (subjects with GBS [1]; patients on active agent first, motor and grip strength continued to drop for up to two additional weeks after one week washout): more than two weeks
Grip strength, start of study compared to after four weeks of treatment (subjects with GBS [2]): increased significantly
Hematocrit, starting value (subjects with GBS [3]; before change): 42.7
All other laboratories, change while on the active agent (subjects with GBS [3]; glucose, BUN, creatinine, calcium, proteins, bilirubin, cholesterol, LDH, alkaline phosphatase, blood counts etc.): no significant change
SGOT, starting value (subjects with GBS [3]; [4]): 25.1
Uric acid, starting value (subjects with GBS [3]; [4]): 6.4
SGOT, after change on the active agent (subjects with GBS [3]; [5]): 27.9
Uric acid, after change on the active agent (subjects with GBS [3]; [5]): 6.5
Hematocrit, after change on the active agent (subjects with GBS [3]; statistically significant, not clinically significant): 41.6
